Measurements: US6489098B1, “Means and methods for monitoring nucleoside reverse transcriptase inhibitor antiretroviral therapy and guiding therapeutic decisions in the treatment of HIV/AIDS” (ViroLogic, Inc., priority 1998, dated 2002)
Where “and” joins values, the source holds several entries; their conditions need not be identical. Identical values can stand only once. Entries after “also recorded” stand apart in the source; their conditions may differ.

Experiments:
[1] = system: HIV strains resistant to abacavir; conditions: cited from earlier work
[2] = system: ZDV-resistant HIV isolates; conditions: cited from earlier work
[3] = system: HIV-1 RT mutant resistance test vector V75I; assay: Phenotypic susceptibility assay, site directed RTV V75I; format: cell-based; conditions: RTV with V75I vs wild type RTV
Description: (§1) Resistance tests were carried out with resistance test vectors using two host cell types. Resistance test vector viral particles were produced by a first host cell (the resistance test vector host cell) that was prepared by transfecting a packaging host cell with the resistance test vector and the packaging expression vector. The resistance test vector viral particles were then used to infect a second host cell (the target host cell) in which the expression of the indicator gene is measured.
(§2) The resistance test vectors containing a functional luciferase gene cassette were constructed and host cells were transfected with the resistance test vector DNA. The resistant test vectors contained patient-derived reverse transcriptase and protease sequences that were either susceptible or resistant to the antiretroviral agents, such as nucleoside reverse transcriptase inhibitors, non-nucleoside reverse transcriptase inhibitors and protease inhibitors. The resistance test vector viral particles produced by transfecting the resistance test vector DNA into host cells, either in the presence or absence of protease inhibitors, were used to infect target host cells grown either in the absence of NRTI or NNRTI or In the presence of increasing concentrations of the drug. […] The IC50 values were determined by plotting percent drug inhibition vs. log 10 drug concentration.
(§3) Host cells were seeded in 10-cm-diameter dishes and were transfected several days after plating with resistance test vector plasmid DNA and the envelope expression vector. […] HIV capsid protein (p24) levels in the harvested cell culture media were determined by an EIA method as described by the manufacturer (SIAC; Frederick, Md.). […] The inhibitory effect of the drug was determined using the following equation: […]
(§4) Genotypic changes that are observed to correlate with changes in phenotypic patterns of drug susceptibility are evaluated by construction of resistance test vectors containing the specific mutation on a defined, wild-type (drug susceptible) genetic background. […]

[4] = system: HIV-1 RT mutant resistance test vector M41L-A62V-T69SSA-T215Y-RTV; assay: Phenotypic susceptibility assay, site directed RTV M41L+A62V+T69SSA+T215Y; format: cell-based; conditions: RTV with M41L+A62V+T69SSA+T215Y; addition of A62V to M41L+T69SSA+T215Y
Description: as §1
(§5) The resistance test vectors containing a functional luciferase gene cassette were constructed and host cells were transfected with the resistance test vector DNA. The resistant test vectors contained patient-derived reverse transcriptase and protease sequences that were either susceptible or resistant to the antiretroviral agents, such as nucleoside reverse transcriptase inhibitors, non-nucleoside reverse transcriptase inhibitors and protease inhibitors. The resistance test vector viral particles produced by transfecting the resistance test vector DNA into host cells, either in the presence or absence of protease inhibitors, were used to infect target host cells grown either in the absence of NRTI or NNRTI or In the presence of increasing concentrations of the drug. The amount of luciferase activIty produced in infected target host cells in the presence of drug was compared to the amount of luciferase produced in infected target host cells in the absence of drug. Drug resistance was measured as the amount of drug required to inhibit by 50% the luciferase activity detected in the absence of drug (Inhibitory concentration 50%, IC50). The IC50 values were determined by plotting percent drug inhibition vs. log 10 drug concentration.
Host cells were seeded in 10-cm-diameter dishes and were transfected several days after plating with resistance test vector plasmid DNA and the envelope expression vector. Transfections were performed using a calcium-phosphate precipitation procedure. The cell culture media containing the DNA precipitate was replaced with fresh medium, from one to 24 hours, after transfection. Cell culture media containing resistance test vector viral particles was harvested one to four days after transfection and was passed through a […] filter before being stored at −80° C. HIV capsid protein (p24) levels in the harvested cell culture media were determined by an EIA method as described by the manufacturer (SIAC; Frederick, Md.). Before infection, target cells (293 and 293/T) were plated in cell culture media. Control infections were performed using cell culture media from mock transfections (no DNA) or transfections containing the resistance test vector plasmid DNA without the envelope expression plasmid. One to three or more days after infectIon the media was removed and cell lysis buffer (Promega) was added to each well. […] The inhibitory effect of the drug was determined using the following equation:
(§6) % luciferase inhibition=1−(RLUluc[drug]÷RLUluc)×100
(§7) where RLUluc [drug] is the relative light unit of luciferase activity in infected cells in the presence of drug and RLUluc is the Relative Light Unit of luciferase activity in infected cells in the absence of drug. IC50 values were obtained from the sigmoidal curves that were generated from the data by plotting the percent inhibition of luciferase activity vs. the log 10 drug concentration.
Mutations may be incorporated alone and/or in combination with other known drug resistance mutations that are thought to modulate the susceptibility of HIV to a certain drug or class of drugs. Mutations are introduced into the resistance test vector through any of the widely known methods for site-directed mutagenesis. In one embodiment of this invention the mega-primer PCR method for site-directed mutagenesis is used.

[5] = system: HIV-1 RT mutant resistance test vector T69SSA; assay: Phenotypic susceptibility assay, site directed RTV T69SSA; format: cell-based; conditions: RTV with T69SSA vs wild type RTV; for Average fold reduction in susceptibility: 3 replicates
Description: as §1, §5
(§8) Host cells were seeded in 10-cm-diameter dishes and were transfected several days after plating with resistance test vector plasmid DNA and the envelope expression vector. Transfections were performed using a calcium-phosphate precipitation procedure. The cell culture media containing the DNA precipitate was replaced with fresh medium, from one to 24 hours, after transfection. Cell culture media containing resistance test vector viral particles was harvested one to four days after transfection and was passed through a […] filter before being stored at −80° C. HIV capsid protein (p24) levels in the harvested cell culture media were determined by an EIA method as described by the manufacturer (SIAC; Frederick, Md.). Before infection, target cells (293 and 293/T) were plated in cell culture media. Control infections were performed using cell culture media from mock transfections (no DNA) or transfections containing the resistance test vector plasmid DNA without the envelope expression plasmid. One to three or more days after infectIon the media was removed and cell lysis buffer (Promega) was added to each well. Cell lysates were assayed for luciferase activity (FIG. 3). The inhibitory effect of the drug was determined using the following equation:
as §6
as §7, with “concentration. The drug inhibition curves are shown in (FIG. 3).” for “concentration.”
as §4, with “background. Mutations may be incorporated alone and/or in combination with other known drug resistance mutations that are thought to modulate the susceptibility of HIV to a certain drug or class of drugs.” for “background.”

[6] = system: HIV-1 RT mutant resistance test vector A62V; assay: Phenotypic susceptibility assay, site directed RTV A62V; format: cell-based; conditions: RTV with A62V vs wild type RTV; for Average fold reduction in susceptibility: 3 replicates
Description: as §1, §5, §8, §6
as §7, with “concentration. The drug inhibition curves are shown in (FIG. 3).” for “concentration.”
as §4, with “background. Mutations may be incorporated alone and/or in combination with other known drug resistance mutations that are thought to modulate the susceptibility of HIV to a certain drug or class of drugs.” for “background.”

[7] = system: HIV-1 RT mutant resistance test vector 41 + 210 + 215; assay: Phenotypic susceptibility assay, site directed RTV 41 + 210 + 215; format: cell-based; conditions: RTV with 41 + 210 + 215; 3 replicates
Description: as §1, §5, §8, §6
as §7, with “concentration. The drug inhibition curves are shown in (FIG. 3).” for “concentration.”
as §4, with “background. Mutations may be incorporated alone and/or in combination with other known drug resistance mutations that are thought to modulate the susceptibility of HIV to a certain drug or class of drugs.” for “background.”

[8] = system: resistance test vectors containing five (M41L, D67N, K70R, T215Y, K219Q) or six (M41L, D67N, K70R, L210W, T215Y, K219Q) AZT resistance associated mutations; assay: Phenotypic susceptibility assay, site directed RTVs with five or six AZT resistance associated mutations; format: cell-based, HIV-1
Description: as §1
The resistance test vectors containing a functional luciferase gene cassette were constructed and host cells were transfected with the resistance test vector DNA. […] The IC50 values were determined by plotting percent drug inhibition vs. log 10 drug concentration.
as §3

[9] = system: HIV-1 RT mutant resistance test vector 41 + 62 + 69 + 75M + 210 + 215; assay: Phenotypic susceptibility assay, site directed RTV 41 + 62 + 69 + 75M + 210 + 215; format: cell-based; conditions: RTV with 41 + 62 + 69 + 75M + 210 + 215; 1 replicate
Description: as §1, §5, §8, §6
as §7, with “concentration. The drug inhibition curves are shown in (FIG. 3).” for “concentration.”
as §4, with “background. Mutations may be incorporated alone and/or in combination with other known drug resistance mutations that are thought to modulate the susceptibility of HIV to a certain drug or class of drugs.” for “background.”

[10] = system: HIV-1 RT mutant resistance test vector V75V; assay: Phenotypic susceptibility assay, site directed RTV V75V; format: cell-based; conditions: for effect on susceptibility (words): RTV with V75V
Description: as §1, §2, §3, §4

HIV clinical isolates = conditions: cited from earlier work
[11] = system: HIV with RT Lys65→Arg mutation; conditions: Lys65→Arg (K65R); cited from earlier work

Compound | cross resistance of abacavir-resistant strains [1] | cross-resistance of ZDV-resistant strains [2] | effect on susceptibility (words) [3] | effect on susceptibility (words) ([3]; listed as d4t) | effect on susceptibility (words) [4] | effect on susceptibility (words) [5] | Average fold reduction in susceptibility [5] | effect on susceptibility (words) [6] | Average fold reduction in susceptibility [6] | Average fold reduction in susceptibility [7] | effect on susceptibility (words) [8] | Average fold reduction in susceptibility [9] | effect on susceptibility (words) [10] | fold reduction in susceptibility ([10]; RTV with V75V vs control RTV) | fold reduction in susceptibility for each ten-fold decrease in ZDV sensitivity (HIV clinical isolates) | fold increase in IC50 / reduction in susceptibility [11] | fold resistance ([1]; multiple mutations (at least three))
Cc1cn([C@H]2C=C[C@@H](CO)O2)c(=O)[nH]c1=O [d4T, stavudine] | not to d4T or ZDV | Cross-resistance | did not alter d4T susceptibility; also recorded: did not reduce d4T susceptibility; also recorded: had no affect on d4T susceptibility | no effect on d4t-susceptibility | did reduce d4T susceptibility more than the T69SSA mutation alone; also recorded: further reduction in susceptibility | did not reduce d4T susceptibility | 2 fold and less than two-fold and 1.58 fold | no differences in their susceptibility to d4T; also recorded: did not reduce d4T susceptibility; also recorded: had no affect on d4T susceptibility | 0.84 fold | 1.94 fold | reduced susceptibility to d4T and AZT | 13.18 fold | did not reduce d4T susceptibility | less than two-fold | – | – | –
O=c1[nH]cnc2c1ncn2[C@H]1CC[C@@H](CO)O1 [ddI, didanosine] | Cross resistance | no evidence that mutations selected for during ZDV monotherapy influence sensitivity | – | – | further reduction in susceptibility | – | 1.32 fold | – | 0.84 fold | 1.08 fold | – | 3.10 fold | – | – | 2.2 fold | three-fold to five-fold | –
Cc1cn([C@H]2C[C@H](N=[N+]=[N-])[C@@H](CO)O2)c(=O)[nH]c1=O [AZT, zidovudine] | not to d4T or ZDV | – | increase in the susceptibility to AZT; also recorded: increased AZT susceptibility; also recorded: increased AZT susceptibility slightly | – | reduced AZT susceptibility more than the combination of M41L and T215Y mutations alone; also recorded: further reduction in susceptibility | small but significant change in susceptibility; also recorded: reduced AZT susceptibility slightly | approximately two-fold and 1.98 fold | slight increases in susceptibility to AZT; also recorded: had no effect on AZT susceptibility; also recorded: had no affect on AZT susceptibility | 1.25 fold | 56.14 fold | reduced susceptibility to d4T and AZT | >1000 fold | increased AZT susceptibility slightly | – | – | – | –
Nc1ccn([C@H]2CC[C@@H](CO)O2)c(=O)n1 [ddC, zalcitabine] | Cross resistance | no evidence that mutations selected for during ZDV monotherapy influence sensitivity | – | – | no effect on susceptibility | – | 1.55 fold | – | 0.74 fold | 1.36 fold | – | 2.09 fold | – | – | two-fold | five-fold to ten-fold | –
Nc1nc(NC2CC2)c2ncn([C@H]3C=C[C@@H](CO)C3)c2n1 [ABC, abacavir] | – | – | – | – | no effect on susceptibility | – | 2.52 fold | – | 0.59 fold | 2.25 fold | – | 15.53 fold | – | – | – | – | 10 fold
